Test results as given in PMC7037393, “Synthesis, Structural, and Cytotoxic Properties of New Water-Soluble Copper(II) Complexes Based on 2,9-Dimethyl-1,10-Phenanthroline and Their One Derivative Containing 1,3,5-Triaza-7-Phosphaadamantane-7-Oxide” (Molecules, 2020).

Assays:
[1] = Octanol-water partition coefficient (log P), UV-Vis; type: physicochemical; details: room temperature, 10^−5 M
Procedure: The log P values consistent to the octanol-water partition coefficient were adjusted to the solubility properties of the compounds [94]. Complexes 1–3 were dissolved in water, previously saturated with octanol with concentrations 10^−5 M. Into a 25-mL flask at room temperature with a magnetic stir bar was introduced initially 5 mL of octanol previously saturated with water and then 5 mL of the complex solutions in water. A two-phase mixture was stirred vigorously for 15 min and samples, which were measured by UV-Vis spectroscopy, were taken from the separated phases.

[2] = Solubility in water at 25 °C, stepwise water addition; type: physicochemical; details: H2O
Procedure: The copper complexes 1–3 were air stable in the solid state and at least for several days in H2O solutions. In a general procedure, the complex was dissolved in H2O in air atmosphere. […] Also UV-Vis spectra of water solutions of 1-3 confirm their stability in several days. […] After each addition of an amount of water (100 µL), the mixture was shaken for several minutes and then visually checked for any undissolved parts of the sample.

[3] = system: NHDF cells; experiment: Cytotoxicity on normal human dermal fibroblasts, quantitative suspension test according to EN 14476 (DAPI/propidium iodide); type: cell-based; details: observed 4 days, aqua media
Procedure: (§1) Normal human dermal fibroblasts (NHDF) (PromoCell, C-12302) were used as normal cells and LoVo (human colorectal adenocarcinoma, ATCC® CCL-229™), A549 (human lung carcinoma, ATCC, No. CCL-185 TM), MCF-7 (human breast adenocarcinoma, ATCC, No. HTB-22^TM) and HeLa (human cervix carcinoma, ATCC, No. CCL-2 TM) were used as cancer cells. They were cultured in DMEM, DMEM–F12 or EMEM (Lonza, CA, USA). Media were supplemented with 10% FBS (Biological Industries, Kibbutz Beit-Haemek, Israel), 2 mM L-glutamine (Biological Industries, Israel), 100 U/mL of penicillin and 100 µg/mL of streptomycin (Sigma, Neustadt an der Weinstrasse, Germany).
(§2) The 100 μL of suspension of NHDF, A549, HeLa, LoVo, and MCF7 cells at a density of 4 × 10^4 cells mL^−1 were incubated in a 96-well polystyrene plate (NUNC, Denmark) for 24 h. Product test solutions were prepared in DMEM, DMEM–F12, or EMEM supplemented with additional 2% FBS and 2 mM L-glutamine. Solutions of the reagents at concentrations from 460 (for 1), 454 (2), […] (3), 1242 (Cu(NO3)2), 1732 (PTA=O), and 1440 µM (dmphen) to 4.60 × 10^−6, 4.54 × 10^−6, 4.69 × 10^−6, 1.24 × 10^−5, 1.73 × 10^−5, and 1.44 × 10^−5 µM, respectively, were prepared and transferred (100 μL) into cell culture units (wells of microtiter plates) containing monolayer of cells. Eight units were inoculated with each dilution. Plates were incubated in 37 °C, 5% CO2 and observed daily for 4 days for the development of cytotoxic effect, using an inverted microscope (Olympus Corp., Hamburg, Germany, Axio Observer, Carl Zeiss MicroImaging GmbH). Then the wells were washed in phosphate buffered saline (PBS) and stained using DAPI (4′,6-diamidino-2-phenylindole) and propidium iodide (Merck, Darmstadt, Germany). The study used the fact that DAPI is able to be combined with cellular DNA, permeate through the membrane of cell, rapidly enter the nucleus of living cells and bind with DNA to form a DAPI-DNA complex. […] In cell culture these are cells that are apoptotic or damaged by any physical or chemical agent. Therefore, if these two fluorochrome are given at the same time, DAPI will get to healthy cells faster, while propidium iodide will stain dead or dying cells. The calculation of the ratio of cells counted on a specific area, allows to determine the potency of a substance in inhibiting a specific biological function (IC50).

[4] = target: T1, human apo-transferrin (apo-Tf) (Homo sapiens, UniProt P02787); experiment: Circular dichroism of apo-transferrin, alpha-helix content; type: binding; details: free protein 19.80%
T1 construct: purchased Sigma-Aldrich
T1 sequence (P02787 20-698): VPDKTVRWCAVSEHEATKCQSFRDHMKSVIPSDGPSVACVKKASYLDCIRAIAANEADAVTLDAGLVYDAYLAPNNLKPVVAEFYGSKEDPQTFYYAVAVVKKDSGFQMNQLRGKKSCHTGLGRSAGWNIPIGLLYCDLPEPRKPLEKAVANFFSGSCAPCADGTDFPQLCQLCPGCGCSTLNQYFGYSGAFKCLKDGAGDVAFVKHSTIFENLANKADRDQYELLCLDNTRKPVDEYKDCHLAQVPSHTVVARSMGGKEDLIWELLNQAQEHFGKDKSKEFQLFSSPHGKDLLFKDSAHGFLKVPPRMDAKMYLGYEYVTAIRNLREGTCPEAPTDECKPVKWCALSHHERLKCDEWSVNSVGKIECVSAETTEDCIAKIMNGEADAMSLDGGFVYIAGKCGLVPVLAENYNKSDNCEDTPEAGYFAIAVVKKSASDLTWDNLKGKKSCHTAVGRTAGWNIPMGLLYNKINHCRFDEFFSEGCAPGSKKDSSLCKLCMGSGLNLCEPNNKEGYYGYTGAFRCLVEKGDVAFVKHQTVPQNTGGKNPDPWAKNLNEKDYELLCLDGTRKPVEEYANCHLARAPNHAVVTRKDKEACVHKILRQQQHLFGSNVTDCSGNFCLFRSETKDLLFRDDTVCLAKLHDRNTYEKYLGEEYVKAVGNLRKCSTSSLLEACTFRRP
Procedure: Circular dichroism (CD) measurements in the far UV region were performed to determine the effect of copper complexes on the apo-transferrin secondary structure. A characteristic for α-helical structure of protein negative bands was visible in the CD spectrum at wavelengths of 210 and 220 nm (Figure 7) and were assigned n-π* transitions peptide bonds. […] The α-helix content the free protein was equal to 19.80%.
High purity apo-transferrin (≥ 98%, Sigma-Aldrich, Steinheim, North Rhine-Westphalia, Germany) was used without prior purification. The stock solutions of the complexes were prepared in demineralized water (1 and 2) or ethanol (3). The apo-Tf was dissolved in PBS (pH 7.40). […] Samples were incubated at 300 and 310 K for 5 min. The apo-Tf concentration was determined using ε (280 nm) = 11.2 mM^−1 × cm^−1.
Circular dichroism measurements were carried out on a Jasco J-715 spectropolarimeter (Tokyo, Japan) in the range of 190–250 nm using 0.1-cm cuvettes. The α-helical content of the protein was calculated from the Equations (9) and (10):(9) MRE209= ObservedCDmdeg/Cp· n· l ·10 (10) α−helix %= −MRE209−4000/33000−4000×100 where MRE is the mean residue ellipticity, Cp is the molar concentration of the protein, n the number of amino acid residues (679), and l is the path length (0.1 cm).

[5] = system: MCF7 (human breast adenocarcinoma); experiment: Cytotoxicity on MCF7 cells, quantitative suspension test according to EN 14476; type: cell-based; details: observed 4 days, aqua media
Procedure: as §1, §2

[6] = molar ratio apo-Tf:complex 1:20

Row | Compound | log P (octanol-water partition coefficient) [1] | solubility in water S25 °C [2] | IC50 [3] | α-helix content of apo-Tf upon binding [4, 6] | IC50 [5] | α-helix content of apo-Tf upon binding ([4]; molar ratio apo-Tf:complex 1:10)
1 | Cc1ccc2ccc3ccc(C)nc3c2n1.F[P-](F)(F)(F)(F)F.O=P12CN3CN(CN(C3)C1)C2.O=[N+]([O-])[O-].[Cu+2] [Complex 1, [Cu(NO3)(PTA=O)(dmphen)][PF6]] | 0.90 | 3.8 mg mL^−1 and ≈ 3.8 mg mL^−1 | 570 ± 80 nM | 19.07% | 570 ± 80 nM | 
2 | CC#N.Cc1ccc2ccc3ccc(C)nc3c2n1.O=[N+]([O-])[O-].O=[N+]([O-])[O-].[Cu+2] [Complex 3, [Cu(NO3)2(dmphen)]∙MeCN] | 1.11 | 2.9 mg mL^−1 and ≈ 2.9 mg mL^−1 | 1720 ± 250 nM | 8.16% | 3450 ± 510 nM | 17.05%
3 | Cc1ccc2ccc3ccc(C)nc3c2n1.Cc1ccc2ccc3ccc(C)nc3c2n1.F[P-](F)(F)(F)(F)F.[Cl-].[Cu+2] [Complex 2, [Cu(Cl)(dmphen)2][PF6]] | 1.75 | 2.5 mg mL^−1 and ≈ 2.5 mg mL^−1 | 230 ± 30 nM | 18.00% | 570 ± 80 nM | 
